Assay results as given in US8926966B1 (Regents of the University of California, priority 1990, dated 2015).

Tested on: IDDM associated autoantibodies in sera
Assay: ELISA of sera on plate-bound human GAD65 peptides
Assay type: binding
Settings: for controls whose sera recognized the peptide: 13 control sera; for number of IDDM (at risk, pre-IDDM, at onset) patients positive (X) for the peptide (unlabelled sum line): IDDM sera of Table 11; for patients whose sera recognized the peptide: patients previously shown to be 64K positive
Description: Patient sera and most control sera were those used in a previous study (Kaufman, et al., J. Clin. Investigation, supra) All samples were coded and tested in a blind manner. Peptides were synthesized using an automatic instrument (Applied Biosystems, Foster City, Calif.) and standard conditions. Peptides were dissolved in 60 mM sodium bicarbonate buffer (pH 9.6) at 20 ug/ml and 100 ul of each was added to duplicated wells of a 96 well Nunc-Immuno Plate. Peptides were allowed to bind at 4° C. overnight. The plates were then washed three times with PBS+0.1% Tween 20 (wash buffer), after which the plates were pre-absorbed with 3% BSA in sodium bicarbonate buffer for 0.5 hours at 37° C., or at room temperature overnight. The plates were then washed 5 times with the above wash buffer. 100 ul of serum at a 1/300 dilution in PBS+0.1% Tween 20 and 1% BSA was added to each well and antibodies were allowed to bind for 1 hour at 37° C. The plates were washed 5 times with wash buffer. 100 ul of a 1/600 dilution of HRP-goat anti-human IgG (BRL, Gaithersberg, Md.) was added to each well and allowed to bind for 1 hour at 37° C. The plates were then washed 7 times and 100 ul of substrate buffer was added to each well for 30 minutes at room temperature. The color development was measured at 410 nm using an ELISA plate reader (ICN, Biomedicals, Costa Mesa, Calif.). Positive sera were defined as: OD410 of the sample/negative control ≧3.0.

[1] = IDDM At Onset serum 048, 1/300 dilution
[2] = IDDM At Onset serum 291, 1/300 dilution
[3] = IDDM At Onset serum 705, 1/300 dilution
[4] = IDDM At Onset serum S.H., 1/300 dilution
[5] = IDDM At Risk serum 052, 1/300 dilution
[6] = IDDM At Risk serum L.I., 1/300 dilution
[7] = Pre-IDDM serum 723, 1/300 dilution
[8] = control serum 5620, 1/300 dilution
[9] = IDDM At Risk serum 356, 1/300 dilution
[10] = Pre-IDDM serum J.A., 1/300 dilution
[11] = Pre-IDDM serum J.B. (2), 1/300 dilution
[12] = Pre-IDDM serum P.T. (1), 1/300 dilution
[13] = Pre-IDDM serum P.T. (2), 1/300 dilution
[14] = Pre-IDDM serum R.S. (2), 1/300 dilution
[15] = control serum S.M., 1/300 dilution
[16] = control serum 4380, 1/300 dilution

AALGIGTDSVILIKCDERGK [Peptide 20]
controls whose sera recognized the peptide: none | immunoreactivity of serum with GAD65 peptide [1]: X (X = positive for immunoreactivity as defined by 00/background^3.0) | immunoreactivity of serum with GAD65 peptide [2]: X (X = positive for immunoreactivity as defined by 00/background^3.0) | immunoreactivity of serum with GAD65 peptide [3]: X (X = positive for immunoreactivity as defined by 00/background^3.0) | immunoreactivity of serum with GAD65 peptide [4]: X (X = positive for immunoreactivity as defined by 00/background^3.0) | immunoreactivity of serum with GAD65 peptide [5]: X (X = positive for immunoreactivity as defined by 00/background^3.0) | immunoreactivity of serum with GAD65 peptide [6]: b (b = borderline response (00/background ?2.5-2.9).) | number of IDDM (at risk, pre-IDDM, at onset) patients positive (X) for the peptide (unlabelled sum line): 7 | immunoreactivity of serum with GAD65 peptide [7]: X (X = positive for immunoreactivity as defined by 00/background^3.0) | patients whose sera recognized the peptide: 6/8

AFTSEHSHFSLKKGAAALGI [Peptide 19]
immunoreactivity of serum with GAD65 peptide [5]: X (X = positive for immunoreactivity as defined by 00/background^3.0) | number of IDDM (at risk, pre-IDDM, at onset) patients positive (X) for the peptide (unlabelled sum line): 1

ATHQDIDFLIEEIERLGQDL [Peptide 38]
immunoreactivity of serum with GAD65 peptide [1]: X (X = positive for immunoreactivity as defined by 00/background^3.0) | immunoreactivity of serum with GAD65 peptide [4]: b (b = borderline response (00/background ?2.5-2.9).) | immunoreactivity of serum with GAD65 peptide [5]: b (b = borderline response (00/background ?2.5-2.9).) | number of IDDM (at risk, pre-IDDM, at onset) patients positive (X) for the peptide (unlabelled sum line): 1

CGRHVDVFKLWLMWRAKGTTG [Peptide 30]
immunoreactivity of serum with GAD65 peptide [8]: b (b = borderline response (00/background ?2.5-2.9).)

DERGKMIPSDLERRILEAKQ [Peptide 21]
controls whose sera recognized the peptide: none | immunoreactivity of serum with GAD65 peptide [1]: X (X = positive for immunoreactivity as defined by 00/background^3.0) | immunoreactivity of serum with GAD65 peptide [2]: X (X = positive for immunoreactivity as defined by 00/background^3.0) | immunoreactivity of serum with GAD65 peptide [3]: X (X = positive for immunoreactivity as defined by 00/background^3.0) | immunoreactivity of serum with GAD65 peptide [4]: X (X = positive for immunoreactivity as defined by 00/background^3.0) | immunoreactivity of serum with GAD65 peptide [9]: X (X = positive for immunoreactivity as defined by 00/background^3.0) | number of IDDM (at risk, pre-IDDM, at onset) patients positive (X) for the peptide (unlabelled sum line): 7 | immunoreactivity of serum with GAD65 peptide [7]: X (X = positive for immunoreactivity as defined by 00/background^3.0) | immunoreactivity of serum with GAD65 peptide [10]: X (X = positive for immunoreactivity as defined by 00/background^3.0) | immunoreactivity of serum with GAD65 peptide [11]: b (b = borderline response (00/background ?2.5-2.9).) | immunoreactivity of serum with GAD65 peptide [12]: X (X = positive for immunoreactivity as defined by 00/background^3.0) | immunoreactivity of serum with GAD65 peptide [13]: X (X = positive for immunoreactivity as defined by 00/background^3.0) | immunoreactivity of serum with GAD65 peptide [14]: b (b = borderline response (00/background ?2.5-2.9).) | immunoreactivity of serum with GAD65 peptide [15]: b (b = borderline response (00/background ?2.5-2.9).) | patients whose sera recognized the peptide: 6/8

DICKKYKIWMHVDAAWGGGLLMS [Peptide 24]
immunoreactivity by both control and patient sera: often positive | immunoreactivity of serum with GAD65 peptide [1]: X (X = positive for immunoreactivity as defined by 00/background^3.0) | immunoreactivity of serum with GAD65 peptide [2]: X (X = positive for immunoreactivity as defined by 00/background^3.0) | immunoreactivity of serum with GAD65 peptide [3]: X (X = positive for immunoreactivity as defined by 00/background^3.0) | immunoreactivity of serum with GAD65 peptide [4]: X (X = positive for immunoreactivity as defined by 00/background^3.0) | immunoreactivity of serum with GAD65 peptide [5]: X (X = positive for immunoreactivity as defined by 00/background^3.0) | immunoreactivity of serum with GAD65 peptide [9]: X (X = positive for immunoreactivity as defined by 00/background^3.0) | immunoreactivity of serum with GAD65 peptide (IDDM At Risk serum 825, 1/300 dilution): X (X = positive for immunoreactivity as defined by 00/background^3.0) | immunoreactivity of serum with GAD65 peptide [6]: X (X = positive for immunoreactivity as defined by 00/background^3.0) | immunoreactivity of serum with GAD65 peptide [7]: X (X = positive for immunoreactivity as defined by 00/background^3.0) | immunoreactivity of serum with GAD65 peptide (Pre-IDDM serum B.Y. (1), 1/300 dilution): X (X = positive for immunoreactivity as defined by 00/background^3.0) | immunoreactivity of serum with GAD65 peptide (Pre-IDDM serum B.Y. (2), 1/300 dilution): X (X = positive for immunoreactivity as defined by 00/background^3.0) | immunoreactivity of serum with GAD65 peptide [10]: X (X = positive for immunoreactivity as defined by 00/background^3.0) | immunoreactivity of serum with GAD65 peptide (Pre-IDDM serum J.B. (1), 1/300 dilution): X (X = positive for immunoreactivity as defined by 00/background^3.0) | immunoreactivity of serum with GAD65 peptide [11]: X (X = positive for immunoreactivity as defined by 00/background^3.0) | immunoreactivity of serum with GAD65 peptide [12]: X (X = positive for immunoreactivity as defined by 00/background^3.0) | immunoreactivity of serum with GAD65 peptide [13]: X (X = positive for immunoreactivity as defined by 00/background^3.0) | immunoreactivity of serum with GAD65 peptide (Pre-IDDM serum R.S. (1), 1/300 dilution): X (X = positive for immunoreactivity as defined by 00/background^3.0) | immunoreactivity of serum with GAD65 peptide [14]: X (X = positive for immunoreactivity as defined by 00/background^3.0) | immunoreactivity of serum with GAD65 peptide (control serum 1688, 1/300 dilution): X (X = positive for immunoreactivity as defined by 00/background^3.0) | immunoreactivity of serum with GAD65 peptide [16]: X (X = positive for immunoreactivity as defined by 00/background^3.0) | immunoreactivity of serum with GAD65 peptide [8]: X (X = positive for immunoreactivity as defined by 00/background^3.0) | immunoreactivity of serum with GAD65 peptide (control serum 5748, 1/300 dilution): X (X = positive for immunoreactivity as defined by 00/background^3.0) | immunoreactivity of serum with GAD65 peptide (control serum A.P., 1/300 dilution): X (X = positive for immunoreactivity as defined by 00/background^3.0) | immunoreactivity of serum with GAD65 peptide (control serum FA2, 1/300 dilution): X (X = positive for immunoreactivity as defined by 00/background^3.0) | immunoreactivity of serum with GAD65 peptide (control serum FA8, 1/300 dilution): X (X = positive for immunoreactivity as defined by 00/background^3.0) | immunoreactivity of serum with GAD65 peptide (control serum FA9, 1/300 dilution): X (X = positive for immunoreactivity as defined by 00/background^3.0) | immunoreactivity of serum with GAD65 peptide (control serum FA11, 1/300 dilution): X (X = positive for immunoreactivity as defined by 00/background^3.0) | immunoreactivity of serum with GAD65 peptide (control serum FA12, 1/300 dilution): X (X = positive for immunoreactivity as defined by 00/background^3.0) | immunoreactivity of serum with GAD65 peptide (control serum H.B., 1/300 dilution): X (X = positive for immunoreactivity as defined by 00/background^3.0) | immunoreactivity of serum with GAD65 peptide (control serum P.T., 1/300 dilution): X (X = positive for immunoreactivity as defined by 00/background^3.0) | immunoreactivity of serum with GAD65 peptide [15]: X (X = positive for immunoreactivity as defined by 00/background^3.0)

DMVGLAADWLTSTANTNMFT [Peptide 13]
immunoreactivity of serum with GAD65 peptide [5]: b (b = borderline response (00/background ?2.5-2.9).)

ERANSVTWNPHKMMGVPLQC [Peptide 26]
immunoreactivity of serum with GAD65 peptide [2]: X (X = positive for immunoreactivity as defined by 00/background^3.0) | number of IDDM (at risk, pre-IDDM, at onset) patients positive (X) for the peptide (unlabelled sum line): 1 | immunoreactivity of serum with GAD65 peptide [8]: b (b = borderline response (00/background ?2.5-2.9).)

EYGTTTMVSYQPLGDKVNFFR [Peptide 36]
immunoreactivity of serum with GAD65 peptide [3]: X (X = positive for immunoreactivity as defined by 00/background^3.0) | number of IDDM (at risk, pre-IDDM, at onset) patients positive (X) for the peptide (unlabelled sum line): 1

EYLYNIIKNREGYEMVFDGK [Peptide 32]
immunoreactivity of serum with GAD65 peptide [1]: X (X = positive for immunoreactivity as defined by 00/background^3.0) | immunoreactivity of serum with GAD65 peptide [2]: b (b = borderline response (00/background ?2.5-2.9).) | immunoreactivity of serum with GAD65 peptide [6]: b (b = borderline response (00/background ?2.5-2.9).) | number of IDDM (at risk, pre-IDDM, at onset) patients positive (X) for the peptide (unlabelled sum line): 1 | immunoreactivity of serum with GAD65 peptide [13]: b (b = borderline response (00/background ?2.5-2.9).) | immunoreactivity of serum with GAD65 peptide [16]: b (b = borderline response (00/background ?2.5-2.9).)

EYVTLKKMREIIGWPGGSGD [Peptide 15]
immunoreactivity of serum with GAD65 peptide [5]: b (b = borderline response (00/background ?2.5-2.9).)
